Experiments:
INSR = biological target: T1, INSR (Homo sapiens, UniProt P06213); test: Kinase panel profiling at 1 µmol/L (mobility shift assay, Carna); format: biochemical; settings: 1 µmol/L of BTK inhibitor
T1 construct: purchased Carna Biosciences

MAPKAPK3 = biological target: T2, MAPKAPK3 (Homo sapiens, UniProt Q16644); test: as above; format: biochemical; settings: 1 µmol/L of BTK inhibitor
T2 construct: purchased Carna Biosciences

PAK2 = biological target: T3, PAK2 (Homo sapiens, UniProt Q13177); test: as above; format: biochemical; settings: 1 µmol/L of BTK inhibitor
T3 construct: purchased Carna Biosciences
T3 sequence (Q13177 whole entry): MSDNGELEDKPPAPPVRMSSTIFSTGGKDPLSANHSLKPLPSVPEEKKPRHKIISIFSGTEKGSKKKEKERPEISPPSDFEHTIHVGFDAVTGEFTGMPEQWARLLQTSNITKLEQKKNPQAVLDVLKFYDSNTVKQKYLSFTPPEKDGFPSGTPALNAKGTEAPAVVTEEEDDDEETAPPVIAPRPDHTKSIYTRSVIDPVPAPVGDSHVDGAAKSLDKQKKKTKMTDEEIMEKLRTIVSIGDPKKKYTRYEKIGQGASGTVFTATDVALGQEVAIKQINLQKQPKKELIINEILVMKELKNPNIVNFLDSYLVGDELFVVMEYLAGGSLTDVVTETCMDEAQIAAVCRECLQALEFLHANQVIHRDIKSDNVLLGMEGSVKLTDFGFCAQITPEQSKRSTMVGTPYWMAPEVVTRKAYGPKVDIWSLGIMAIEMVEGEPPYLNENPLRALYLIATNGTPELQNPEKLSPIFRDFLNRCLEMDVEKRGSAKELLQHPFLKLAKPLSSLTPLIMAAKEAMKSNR

ERK2 = ERK2 (Homo sapiens, UniProt P28482); test: Kinase enzyme activity assay (mobility shift assay, Carna); settings: for Percentage inhibition of kinase enzyme activity: Erk2, 1 µmol/L of BTK inhibitor
ERK2, sequence (P28482 whole entry): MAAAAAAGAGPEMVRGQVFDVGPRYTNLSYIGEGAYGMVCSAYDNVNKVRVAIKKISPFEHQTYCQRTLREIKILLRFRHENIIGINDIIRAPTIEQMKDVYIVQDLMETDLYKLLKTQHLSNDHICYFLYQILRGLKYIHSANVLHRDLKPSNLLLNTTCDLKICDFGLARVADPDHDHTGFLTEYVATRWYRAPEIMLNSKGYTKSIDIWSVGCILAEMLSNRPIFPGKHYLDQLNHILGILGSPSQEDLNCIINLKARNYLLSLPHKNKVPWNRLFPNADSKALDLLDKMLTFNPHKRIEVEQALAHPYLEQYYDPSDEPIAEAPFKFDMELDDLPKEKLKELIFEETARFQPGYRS

CaMK4 = biological target: T4, CaMK4 (Homo sapiens, UniProt Q16566); test: Kinase panel profiling at 1 µmol/L (mobility shift assay, Carna); format: biochemical; settings: 1 µmol/L of BTK inhibitor
T4 construct: purchased Carna Biosciences
T4 sequence (Q16566 1-473): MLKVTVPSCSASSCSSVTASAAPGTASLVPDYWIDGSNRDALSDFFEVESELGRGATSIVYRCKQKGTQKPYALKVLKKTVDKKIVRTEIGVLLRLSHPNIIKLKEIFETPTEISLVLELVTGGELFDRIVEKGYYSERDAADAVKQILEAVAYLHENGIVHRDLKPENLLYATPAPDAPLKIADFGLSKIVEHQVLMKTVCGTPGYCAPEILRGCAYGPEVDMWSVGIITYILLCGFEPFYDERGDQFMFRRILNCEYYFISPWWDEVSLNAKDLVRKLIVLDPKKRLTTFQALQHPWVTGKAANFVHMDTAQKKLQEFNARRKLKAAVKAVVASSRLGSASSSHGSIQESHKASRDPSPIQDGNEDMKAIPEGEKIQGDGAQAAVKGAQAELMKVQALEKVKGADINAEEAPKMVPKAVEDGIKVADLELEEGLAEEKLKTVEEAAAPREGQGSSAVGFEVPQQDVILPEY

NEK2 = biological target: T5, NEK2 (Homo sapiens, UniProt P51955); test: as above; format: biochemical; settings: 1 µmol/L of BTK inhibitor
T5 construct: purchased Carna Biosciences
T5 sequence (P51955 1-445): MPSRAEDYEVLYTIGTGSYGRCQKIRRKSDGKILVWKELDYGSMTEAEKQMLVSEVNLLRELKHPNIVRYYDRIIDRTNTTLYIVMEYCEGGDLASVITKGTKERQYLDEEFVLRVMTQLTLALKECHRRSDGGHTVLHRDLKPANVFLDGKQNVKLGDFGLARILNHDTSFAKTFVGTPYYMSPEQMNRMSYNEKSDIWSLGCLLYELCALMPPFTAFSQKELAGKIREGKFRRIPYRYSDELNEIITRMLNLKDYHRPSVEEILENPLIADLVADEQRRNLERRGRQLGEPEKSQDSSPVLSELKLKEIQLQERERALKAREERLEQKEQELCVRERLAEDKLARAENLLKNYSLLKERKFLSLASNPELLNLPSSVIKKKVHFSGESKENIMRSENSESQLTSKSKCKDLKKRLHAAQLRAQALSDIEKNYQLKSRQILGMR

PKCζ = biological target: T6, PKCζ (Homo sapiens, UniProt Q05513); test: as above; format: biochemical; settings: 1 µmol/L of BTK inhibitor
T6 construct: purchased Carna Biosciences
T6 sequence (Q05513 1-592): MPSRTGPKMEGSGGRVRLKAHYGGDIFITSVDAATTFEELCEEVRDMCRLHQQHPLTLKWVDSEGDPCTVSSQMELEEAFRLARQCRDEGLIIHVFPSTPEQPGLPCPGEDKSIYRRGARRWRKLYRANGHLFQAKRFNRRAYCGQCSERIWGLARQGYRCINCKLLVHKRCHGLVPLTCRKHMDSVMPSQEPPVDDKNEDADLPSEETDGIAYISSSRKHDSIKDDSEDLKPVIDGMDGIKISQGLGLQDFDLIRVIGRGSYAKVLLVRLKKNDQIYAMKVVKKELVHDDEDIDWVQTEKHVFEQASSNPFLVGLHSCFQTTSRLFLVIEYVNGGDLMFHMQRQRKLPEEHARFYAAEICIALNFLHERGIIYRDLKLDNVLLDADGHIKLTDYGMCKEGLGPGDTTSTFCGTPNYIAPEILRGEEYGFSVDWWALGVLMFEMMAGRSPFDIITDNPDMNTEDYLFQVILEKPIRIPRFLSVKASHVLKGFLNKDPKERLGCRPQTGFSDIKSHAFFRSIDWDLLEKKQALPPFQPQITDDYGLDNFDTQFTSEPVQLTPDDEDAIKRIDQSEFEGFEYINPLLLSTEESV

HGK = biological target: T7, HGK (Homo sapiens, UniProt O95819); test: as above; format: biochemical; settings: 1 µmol/L of BTK inhibitor
T7 construct: purchased Carna Biosciences

ABL = biological target: T8, ABL (Homo sapiens, UniProt P00519); test: as above; format: biochemical; settings: 1 µmol/L of BTK inhibitor
T8 construct: purchased Carna Biosciences
T8 sequence (P00519 whole entry): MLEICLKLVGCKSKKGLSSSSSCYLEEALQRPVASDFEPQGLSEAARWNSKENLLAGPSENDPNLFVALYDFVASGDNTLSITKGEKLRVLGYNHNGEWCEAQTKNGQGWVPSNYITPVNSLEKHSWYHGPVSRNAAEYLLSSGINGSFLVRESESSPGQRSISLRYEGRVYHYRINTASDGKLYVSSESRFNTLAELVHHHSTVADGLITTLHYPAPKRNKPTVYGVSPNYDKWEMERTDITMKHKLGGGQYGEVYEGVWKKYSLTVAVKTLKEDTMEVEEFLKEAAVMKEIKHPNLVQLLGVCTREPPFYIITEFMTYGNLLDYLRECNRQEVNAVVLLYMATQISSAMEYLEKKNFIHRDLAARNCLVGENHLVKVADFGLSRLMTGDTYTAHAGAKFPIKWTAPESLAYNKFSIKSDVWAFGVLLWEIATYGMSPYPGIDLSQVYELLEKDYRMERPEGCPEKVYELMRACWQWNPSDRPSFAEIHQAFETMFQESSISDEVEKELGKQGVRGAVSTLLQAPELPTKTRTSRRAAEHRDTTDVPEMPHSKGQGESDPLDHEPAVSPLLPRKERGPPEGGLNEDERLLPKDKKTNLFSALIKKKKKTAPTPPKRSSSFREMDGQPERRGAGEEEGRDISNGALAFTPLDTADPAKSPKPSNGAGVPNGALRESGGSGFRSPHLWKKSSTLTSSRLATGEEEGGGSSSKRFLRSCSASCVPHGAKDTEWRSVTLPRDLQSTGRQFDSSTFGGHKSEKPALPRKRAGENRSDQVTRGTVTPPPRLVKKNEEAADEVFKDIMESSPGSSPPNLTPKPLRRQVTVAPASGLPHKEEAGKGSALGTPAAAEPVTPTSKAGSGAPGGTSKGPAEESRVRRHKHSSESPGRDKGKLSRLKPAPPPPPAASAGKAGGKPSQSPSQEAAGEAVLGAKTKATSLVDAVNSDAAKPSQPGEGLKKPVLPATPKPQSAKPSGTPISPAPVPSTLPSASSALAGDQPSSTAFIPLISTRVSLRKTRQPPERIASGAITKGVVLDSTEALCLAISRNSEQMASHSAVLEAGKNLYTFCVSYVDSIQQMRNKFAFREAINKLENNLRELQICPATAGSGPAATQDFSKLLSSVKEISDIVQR

RSK3 = biological target: T9, RSK3 (Homo sapiens, UniProt Q15349); test: as above; format: biochemical; settings: 1 µmol/L of BTK inhibitor
T9 construct: purchased Carna Biosciences
T9 sequence (Q15349 whole entry): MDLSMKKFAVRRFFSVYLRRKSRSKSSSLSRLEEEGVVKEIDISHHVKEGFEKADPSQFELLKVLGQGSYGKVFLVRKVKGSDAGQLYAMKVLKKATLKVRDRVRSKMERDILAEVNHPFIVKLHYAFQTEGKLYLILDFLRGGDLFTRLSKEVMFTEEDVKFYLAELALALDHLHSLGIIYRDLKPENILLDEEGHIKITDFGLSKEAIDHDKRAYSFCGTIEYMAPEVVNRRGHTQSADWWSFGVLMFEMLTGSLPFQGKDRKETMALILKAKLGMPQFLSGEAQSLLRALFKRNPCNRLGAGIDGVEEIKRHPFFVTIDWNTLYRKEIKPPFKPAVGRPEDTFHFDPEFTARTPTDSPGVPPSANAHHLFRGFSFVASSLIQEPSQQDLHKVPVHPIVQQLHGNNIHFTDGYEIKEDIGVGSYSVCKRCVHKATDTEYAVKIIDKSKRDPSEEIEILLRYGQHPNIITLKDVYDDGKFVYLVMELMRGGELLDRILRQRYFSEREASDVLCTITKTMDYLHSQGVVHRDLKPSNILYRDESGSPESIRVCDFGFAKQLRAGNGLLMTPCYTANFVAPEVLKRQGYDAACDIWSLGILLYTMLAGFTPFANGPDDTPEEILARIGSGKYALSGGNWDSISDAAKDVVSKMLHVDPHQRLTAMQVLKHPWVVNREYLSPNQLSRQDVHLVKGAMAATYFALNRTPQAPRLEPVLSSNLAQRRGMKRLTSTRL

T1 sequence (P06213 28-1382): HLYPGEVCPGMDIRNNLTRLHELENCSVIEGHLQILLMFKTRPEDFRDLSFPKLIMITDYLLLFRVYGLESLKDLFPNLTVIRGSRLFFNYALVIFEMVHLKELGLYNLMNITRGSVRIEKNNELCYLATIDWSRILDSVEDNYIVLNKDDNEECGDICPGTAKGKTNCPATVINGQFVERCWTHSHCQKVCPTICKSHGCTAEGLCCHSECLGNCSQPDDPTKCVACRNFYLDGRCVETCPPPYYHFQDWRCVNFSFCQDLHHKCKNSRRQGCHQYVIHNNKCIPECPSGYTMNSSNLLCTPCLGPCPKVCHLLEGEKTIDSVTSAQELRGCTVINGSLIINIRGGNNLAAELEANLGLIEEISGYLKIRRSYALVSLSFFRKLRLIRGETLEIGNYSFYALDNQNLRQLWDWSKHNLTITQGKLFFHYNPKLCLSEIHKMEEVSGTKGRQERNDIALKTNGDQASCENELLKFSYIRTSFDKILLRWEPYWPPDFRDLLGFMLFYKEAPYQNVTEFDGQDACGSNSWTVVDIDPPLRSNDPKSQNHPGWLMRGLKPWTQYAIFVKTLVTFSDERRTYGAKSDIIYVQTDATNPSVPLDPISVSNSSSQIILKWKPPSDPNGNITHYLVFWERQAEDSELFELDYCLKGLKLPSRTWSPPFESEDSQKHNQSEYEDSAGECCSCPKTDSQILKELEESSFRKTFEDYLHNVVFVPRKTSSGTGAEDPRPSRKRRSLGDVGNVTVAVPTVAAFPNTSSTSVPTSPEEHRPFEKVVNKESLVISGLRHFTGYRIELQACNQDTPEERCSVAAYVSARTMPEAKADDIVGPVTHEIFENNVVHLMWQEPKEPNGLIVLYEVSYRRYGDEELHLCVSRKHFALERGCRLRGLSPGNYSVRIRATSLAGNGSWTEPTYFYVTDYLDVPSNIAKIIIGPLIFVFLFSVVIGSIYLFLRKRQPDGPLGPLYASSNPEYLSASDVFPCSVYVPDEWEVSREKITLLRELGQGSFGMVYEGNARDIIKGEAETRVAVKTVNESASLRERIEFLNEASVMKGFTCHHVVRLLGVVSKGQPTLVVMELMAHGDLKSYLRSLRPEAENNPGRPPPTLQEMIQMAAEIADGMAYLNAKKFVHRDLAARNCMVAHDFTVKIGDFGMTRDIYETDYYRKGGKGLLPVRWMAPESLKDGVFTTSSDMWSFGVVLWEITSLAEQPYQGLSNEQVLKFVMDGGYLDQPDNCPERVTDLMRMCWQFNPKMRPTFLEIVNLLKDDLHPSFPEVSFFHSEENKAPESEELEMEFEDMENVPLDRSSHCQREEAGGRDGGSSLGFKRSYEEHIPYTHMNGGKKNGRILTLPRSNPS
T2 sequence (Q16644 whole entry): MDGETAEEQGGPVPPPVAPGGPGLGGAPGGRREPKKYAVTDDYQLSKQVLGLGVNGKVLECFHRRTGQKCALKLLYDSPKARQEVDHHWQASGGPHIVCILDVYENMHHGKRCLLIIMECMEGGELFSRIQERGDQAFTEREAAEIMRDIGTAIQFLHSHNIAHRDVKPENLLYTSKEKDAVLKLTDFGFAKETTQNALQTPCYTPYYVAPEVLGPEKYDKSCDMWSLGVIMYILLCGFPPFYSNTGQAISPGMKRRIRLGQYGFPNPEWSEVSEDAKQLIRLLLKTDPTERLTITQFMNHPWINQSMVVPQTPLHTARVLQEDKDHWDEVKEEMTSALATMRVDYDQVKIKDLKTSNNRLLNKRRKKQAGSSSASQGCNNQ

Row | SMILES | Percentage inhibition of kinase enzyme activity (INSR) | Percentage inhibition of kinase enzyme activity (MAPKAPK3) | Percentage inhibition of kinase enzyme activity (PAK2) | Percentage inhibition of kinase enzyme activity (ERK2) | Percentage inhibition of kinase enzyme activity (CaMK4) | Percentage inhibition of kinase enzyme activity (NEK2) | Percentage inhibition of kinase enzyme activity (PKCζ) | Percentage inhibition of kinase enzyme activity (HGK) | Percentage inhibition of kinase enzyme activity (ABL) | Percentage inhibition of kinase enzyme activity (RSK3) | IC50 (ERK2) | Inhibition of ERK2 (ERK2)
1 | C=CC(=O)N1CCC([C@@H]2CCNc3c(C(N)=O)c(-c4ccc(Oc5ccccc5)cc4)nn32)CC1 [zanubrutinib] | 2.69% | -12.22% | 9.82% | – | – | – | – | – | – | – | – | –
2 | CC#CC(=O)N1CCC[C@H]1c1nc(-c2ccc(C(=O)Nc3ccccn3)cc2)c2c(N)nccn12 [acalabrutinib] | -4.67% | -11.15% | -5.20% | -2.02% | -8.42% | -6.35% | -5.44% | -1.42% | -2.81% | 1.13% | – | –
3 | COc1ccc(F)cc1C(=O)NCc1ccc(-c2nn([C@@H](C)C(F)(F)F)c(N)c2C(N)=O)cc1 [pirtobrutinib] | 6.62% | -18.63% | 8.29% | 6.64% | -9.89% | 2.00% | -3.38% | 3.60% | 2.26% | 1.65% | – | –
4 | O=C(c1ccc(Oc2ccccc2)cc1Cl)c1c[nH]c2ncnc(N[C@@H]3CC[C@@H](CO)OC3)c12 [nemtabrutinib] | 95.91% | -15.88% | 93.68% | 67.16% | 5.83% | 74.64% | -0.78% | 72.78% | 56.26% | 19.54% | 505 nM | did not inhibit
5 | C=CC(=O)N1CCC[C@@H](n2nc(-c3ccc(Oc4ccccc4)cc3)c3c(N)ncnc32)C1 [ibrutinib] | 9.51% | -6.50% | -5.81% | -6.90% | 2.93% | 6.64% | 10.28% | -0.0249% | 7.80% | 8.80% | – | –
